We go through seven compounds from patent publication US9249085B2, “Aniline derivatives, their preparation and their therapeutic application” (FOVEA PHARMACEUTICALS, priority 2011, dated 2016).

Series [1] can be described thus: Solubility at equilibrium. Type of series: physicochemical. To be noted: thermodynamic from solid; in the diluent, room temperature, n=1, HPLC quantification. The procedure:
Solubility of the test materials was evaluated on n=1 trial, following the procedure below:
2.5 mg of each compound for solubility testing were dissolved in 5 mL of the diluent, an initial concentration of 500 ug/mL. The mixture was first vortexed for 15 seconds to allow a good wetting of the API, then sonicated for 5 minutes to promote solubilisation. The vortex/sonication cycle was repeated 3 times. The suspension was stirred at room temperature using a magnetic stirrer at 300 rpm. This mixture is observed at 4 h, 24 h and 48 h to determine if the test compound has dissolved. At each time point if the compound is completely solubilised a further 5 mg of the test compound is added and the process repeated.
When no more test compound will dissolve in the diluent, an aliquot of 0.5 mL of the suspension was withdrawn and centrifuged 3×2 min at 13400 rpm. The supernatant for HPLC quantification was filtered using 0.2 μm Pall Aerodisc Nylon 13 mm membrane and quantified by comparing to the calibration curve, using the method: column: Nucleodur C18 ISIS 3 μm 4.6×125 mm, Mobile Phase (CH3COOH 0.05% in H2O and ACN), Flow rate: 1 ml/min, Wavelength: λ=240 nm (IIa and IIc) or […] (IId), Injected volume: 10 μl, Gradient of concentration: from 30% B to 100% B in 6 min.

The target in series [2] is recombinant human prostanoid EP4 receptor (Homo sapiens (Human), UniProt P35408). In words: Human prostanoid EP4 receptor binding assay ([3H]PGE2 displacement). The following applies: HEK-293(T) membranes, 0.5 nM [3H]PGE2, 120 min at 22° C.; NC: not calculable; read-out: In vitro potency EP4 (h) IC50. The procedure:
Test 1.1: Human Prostanoid EP4 Receptor Binding Assay
Cell membrane homogenate from Human embryonic kidney HEK-293(T) cells expressing recombinant human prostanoid EP4 receptor was used to perform Prostanoid receptor radioligand binding assays.
The competition reaction was initiated by incubation of membrane protein homogenate (20 μg protein) for 120 min at 22° C. with 0.5 nM [^3H]PGE2 ligand in the absence or presence of the test compound in a buffer containing 10 mM MES/KOH (pH 6.0), 10 mM MgCl2 and 1 mM EDTA.
Non-specific binding was determined in the presence of 10 μM PGE2 (the corresponding non-radioactive prostanoid). Affinity of the compound binding to hEP4 receptor was measured by displacement of the radiolabeled ligand in the presence of varying doses of tested compound.
Incubations were terminated by rapid filtration under vacuum through glass fiber filters (GF/B, Packard) presoaked with 0.3% PEI and washed several times with ice-cold 50 mM Tris-HCl using a 96-sample cell harvester (Unifilter, Packard).
The filters were dried and the residual radioactivity bound to the individual filters determined with addition of scintillation cocktail (Microscint 0, Packard) by a scintillation counter (Topcount, Packard).
The results were expressed as a percent inhibition of the control radioligand specific binding.
The standard reference compound PGE2, was tested in at several concentrations to obtain a competition curve to determined IC50.
(§1) Analysis and Expression of Results
The specific ligand binding to the receptors is defined as the difference between the total binding and the nonspecific binding determined in the presence of an excess of unlabelled ligand. The results are expressed as a percent of control specific binding ((measured specific binding/control specific binding)×100) obtained in the presence of the test compounds. The IC50 values (concentration causing a half-maximal inhibition of control specific binding) and Hill coefficients (nH) were determined by non-linear regression analysis of the competition curves generated with mean replicate values using Hill equation curve fitting (Y=D+[(A−D)/(1+(C/C50)nH)], where Y=specific binding, D=minimum specific binding, A=maximum specific binding, C=compound concentration, C50=IC50, and nH=slope factor). This analysis was performed using a software developed at Cerep (Hill software) and validated by comparison with data generated by the commercial software SigmaPlot® 4.0 for Windows® (© 1997 by SPSS Inc.). The inhibition constants (Ki) were calculated using the Cheng Prusoff equation (Ki=IC50/(1+(L/KD)), where L=concentration of radioligand in the assay, and KD=affinity of the radioligand for the receptor). A scatchard plot is used to determine the Kd.

For series [3], the target named is recombinant human prostanoid EP2 receptor (Homo sapiens (Human), UniProt P43116). The series can be described thus: Human prostanoid EP2 receptor cellular functional assay (cAMP, HTRF). The following applies: for EC50: CHO cells expressing recombinant human EP2, cAMP by HTRF, 30 min, 37° C., read-out: In vitro functional assay EP2 (h) EC50; for In vitro functional assay EP2 (h) % response: percent of control specific agonist response (10 μM PGE2). Type of series: cell-based. As for the experimental part: Test 1.2: Human Prostanoid EP2 Receptor Cellular Functional Assay
Sequence of recombinant human prostanoid EP2 receptor (P43116 whole entry): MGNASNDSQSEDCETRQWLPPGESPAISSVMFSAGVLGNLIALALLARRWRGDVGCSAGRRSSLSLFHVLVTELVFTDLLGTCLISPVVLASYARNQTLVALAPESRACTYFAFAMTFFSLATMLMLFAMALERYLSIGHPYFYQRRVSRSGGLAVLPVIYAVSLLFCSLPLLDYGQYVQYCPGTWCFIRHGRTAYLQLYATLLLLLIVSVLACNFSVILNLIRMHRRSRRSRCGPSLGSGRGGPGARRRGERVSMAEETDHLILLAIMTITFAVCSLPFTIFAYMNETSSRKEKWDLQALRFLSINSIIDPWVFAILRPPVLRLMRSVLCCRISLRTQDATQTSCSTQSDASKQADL
Human CHO cells expressing the recombinant human prostanoid EP2 receptor were suspended in assay medium (HBSS buffer (Invitrogen) containing 20 mM HEPES (pH7.4) and 500 μM isobutyl-methylxanthine IBMX) and plated out to yield approximately 1×10^4 cells/well in a 96-well. Following this, cells were incubated with agonists for 30 min in the presence of the test compounds. For stimulated control measurements, separate assay wells contain 10 μM PGE2 (control specific agonist). All incubations were carried out at 37° C. in a 5% CO2 atmosphere. Following incubation, the amount of cAMP in each well was determined by HTRF method. The cells are lysed and the fluorescence acceptor (D2-labeled cAMP) and fluorescence donor (anti-cAMP antibody labeled with europium cryptate) are added. After 60 min at room temperature, the fluorescence transfer is measured at λ ex=337 nm and λ em=620 and 665 nm using a microplate reader (Rubystar, BMG).
The cAMP concentration is determined by dividing the signal measured at 665 nm by that measured at 620 nm (ratio).
The standard reference agonist PGE2 was tested at several concentrations to generate a concentration-response curve to determined EC50.
as §1
The results are expressed as a percent of control specific agonist response ((measured specific response/control specific agonist response)×100) obtained in the presence of the test compounds. The EC50 values (concentration producing a half-maximal specific response) were determined by non-linear regression analysis of the concentration-response curves generated with mean replicate values using Hill equation curve fitting (Y=D+[(A−D)/(1+(C/C50)nH)], where Y=specific response, D=minimum specific response, A=maximum specific response, C=compound concentration, and C50=EC50 and nH=slope factor). This analysis was performed using a software developed at Cerep (Hill software) and validated by comparison with data generated by the commercial software SigmaPlot® 4.0 for Windows® (© 1997 by SPSS Inc.).

In series [4] the test system is Laser-Induced Hypertensive Cynomolgus Monkey. The series can be described thus: Intraocular pressure in laser-induced hypertensive cynomolgus monkey. The following applies: 0.01% topical, 50 μl drop to glaucomatous eye once daily for 5 days; FIG. 1. Type of series: in vivo. The procedure:
Laser-Induced Hypertensive Cynomolgus Monkey
Ten adult female cynomolgus monkeys, each weighing 3-5 kg, in which glaucoma had been induced unilaterally by diode laser photocoagulation of the mid-trabecular meshwork, were used in this study.
Intraocular pressure (IOP) was measured at 0 hr (before drug administration) and then hourly until 6 hrs after drug administration on one baseline day, one vehicle-treatment day, and treatment days 1, 3, and 5 with 0.01% of compound II(d).
Compound II(d) was tested in two groups of 4 monkeys for a total of 8 monkeys. Following one baseline day (untreated) and one vehicle-treatment day (50 μl (25 μl×2), drop of vehicle to the glaucomatous eye at 9:30 (a 50 μl drop (25 μl×2) of compound (II(d)) were topically applied to the glaucomatous eye only once daily at 9:30 am for 5 consecutive days.
Slit-lamp examination for the detection of aqueous humor flare and cells was performed in a dark room before drug administration and at 1, 3 and 5 hrs after dosing on baseline day and at the same times on treatment days 1, 3 and 5.
Two-tailed paired and unpaired t test and the ANOVA test were used for statistical analysis.

SMILES strings stand for the structures. Converted amounts (≈) assume the structure as drawn. Some results are limits rather than exact numbers.

Sequence of recombinant human prostanoid EP4 receptor (P35408 whole entry): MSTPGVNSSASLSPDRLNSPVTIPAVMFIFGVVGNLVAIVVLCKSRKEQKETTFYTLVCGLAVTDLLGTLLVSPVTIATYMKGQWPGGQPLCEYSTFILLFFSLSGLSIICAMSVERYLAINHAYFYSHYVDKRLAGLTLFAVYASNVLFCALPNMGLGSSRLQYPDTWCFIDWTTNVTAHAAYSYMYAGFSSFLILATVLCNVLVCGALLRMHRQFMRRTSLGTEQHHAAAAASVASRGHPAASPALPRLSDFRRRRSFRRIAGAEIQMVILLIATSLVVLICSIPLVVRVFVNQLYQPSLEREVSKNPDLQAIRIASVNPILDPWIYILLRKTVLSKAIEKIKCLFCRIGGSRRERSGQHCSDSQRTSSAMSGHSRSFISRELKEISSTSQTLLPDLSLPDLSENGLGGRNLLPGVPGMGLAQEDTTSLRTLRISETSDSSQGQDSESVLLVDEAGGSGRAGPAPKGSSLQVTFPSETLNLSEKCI

Take `CCOC(=O)COc1ccc(F)c(NCc2cc(-c3cccc(F)c3)ccc2F)c1F` [II(a), ethyl 2-[2,4-difluoro-3-[[2-fluoro-5-(3-fluorophenyl)phenyl]methylamino]phenoxy]acetate]: in series [1], the solubility is 8120 µg/mL (≈ 18.7 mM).
Still for that read-out and setting: the result for `O=C(O)COc1cccc(CN(Cc2ccc(-n3cccn3)cc2)S(=O)(=O)c2cccnc2)c1` [PF-04217329, taprenepag, reference compound] reads 542 µg/mL (≈ 1.13 mM).
On to `Cc1c(F)cc(-c2cccc(F)c2)cc1CNc1c(F)ccc(OCC(=O)O)c1F` [I(aa), 2-[2,4-difluoro-3-[[3-fluoro-5-(3-fluorophenyl)-2-methylphenyl]methylamino]phenoxy]acetic acid], for which, in series [2], the IC50 was over 300 nM. Besides, in series [3], the EC50 came out at 3 nM and the “In vitro functional assay EP2 (h) % response” value came to 97%.
The corresponding values for `Cc1cc(-c2cccc(F)c2)cc(CNc2c(C)ccc(OCC(=O)O)c2C)c1F` [I(ag), 2-[3-[[2-fluoro-5-(3-fluorophenyl)-3-methyl-phenyl]methylamino]-2,4-dimethyl-phenoxy]acetic acid] are over 300 nM, under 1 nM and 85%.
For `Cc1cc(-c2cccc(F)c2)cc(CNc2c(C)ccc(OCC(=O)O)c2C)c1C` [I(ak), 2-[3-[[5-(3-fluorophenyl)-2,3-dimethyl-phenyl]methylamino]-2,4-dimethyl-phenoxy]acetic acid], the IC50 in series [2] was over 300 nM. Besides, in series [3], the EC50 was determined as 2 nM and the “In vitro functional assay EP2 (h) % response” value is reported as 113%.
As for `CC(C)OC(=O)COc1ccc(F)c(NCc2cc(-c3cccc(F)c3)ccc2F)c1F` [II(d), Isopropyl 2-[2,4-difluoro-3-[[2-fluoro-5-(3-fluorophenyl)phenyl]methylamino]phenoxy]acetate], the solubility in series [1] was determined as 711 µg/mL (≈ 1.59 mM). In series [4], the “overall IOP reduction” value is on record as 22%. Also, in series [3], the EC50 is over 300 nM and the “In vitro functional assay EP2 (h) % response” value amounted to 44%.
The compound `COC(=O)COc1ccc(F)c(NCc2cc(-c3cccc(F)c3)ccc2F)c1F` [II(c), Methyl 2-[2,4-difluoro-3-[[2-fluoro-5-(3-fluorophenyl)phenyl]methylamino]phenoxy]acetate] yielded a solubility in series [1] of 6780 µg/mL (≈ 16.2 mM).

For orientation: solubility means the concentration that dissolves in the medium under given conditions. A word on the IC50: it is the concentration needed to halve the response being measured. A word on the EC50: it is the concentration needed to bring the measured effect to its halfway point.
